{
  "source": "patent US12622899B2",
  "about": "(PureTech LYT 100, Inc., priority 2018, dated 2026)",
  "key": {"[1]": {"test_system": "rat BLM induced lung fibrosis model", "test": "Rat bleomycin induced lung fibrosis model, Phase II (efficacy)", "settings": "bleomycin rats, LYT-100 400 mg/kg QD / nintedanib 60 mg/kg BID", "method": "For Groups 4, 5, 6, and 7, bleomycin and vehicle dosing were conducted as indicated in Table 28 (0.45 mg/kg, at 1696 IU/mg of Bleomycin or saline on Day 1, 2, 3, 6 and 7)."}, "[2]": {"settings": "study PIPF-005, 801 mg three times daily (2403 mg/day), healthy older subjects; cited from earlier work"}, "patients with IPF [3]": {"test_system": "patients with IPF", "settings": "cited from earlier work; for patients with IPF progression (decline ≥10% in % FVC or death over 52 weeks): Nathan 2018"}, "CYP1A2": {"molecular_target": "T1, CYP1A2 (Homo sapiens, UniProt P05177)", "T1 construct": "host or cells: heterologous cell systems (not specified)", "T1 sequence (P05177 1-516)": "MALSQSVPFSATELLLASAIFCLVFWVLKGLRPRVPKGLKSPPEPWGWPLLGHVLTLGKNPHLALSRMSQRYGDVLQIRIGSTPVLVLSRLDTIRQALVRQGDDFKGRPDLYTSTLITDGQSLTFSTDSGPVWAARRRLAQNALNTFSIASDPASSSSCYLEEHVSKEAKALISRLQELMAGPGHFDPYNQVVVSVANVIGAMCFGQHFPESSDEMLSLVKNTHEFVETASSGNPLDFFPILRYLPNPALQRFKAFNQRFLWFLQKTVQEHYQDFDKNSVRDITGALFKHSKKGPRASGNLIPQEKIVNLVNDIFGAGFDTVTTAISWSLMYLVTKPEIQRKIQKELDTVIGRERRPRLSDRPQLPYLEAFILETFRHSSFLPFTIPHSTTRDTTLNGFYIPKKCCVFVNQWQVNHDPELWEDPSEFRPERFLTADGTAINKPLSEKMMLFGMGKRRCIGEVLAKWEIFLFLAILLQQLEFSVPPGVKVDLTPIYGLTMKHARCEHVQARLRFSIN", "test": "In vitro stability with recombinant human CYP1A2", "type": "in vitro ADME", "settings": "recombinant human isozyme; read-out: t1/2 following incubation with CYP1A2 (converted)", "procedure": "(§1) The half-life (t½) of each test article was determined."}, "patients with IPF [4]": {"test_system": "patients with IPF", "settings": "cited from earlier work"}, "[5]": {"test_system": "patients with Idiopathic Pulmonary Fibrosis (IPF)", "test": "IPF trial Part A: clinical laboratory parameters, liver", "type": "in vivo, human", "settings": "801 mg TID (N = 63), N1 62"}, "clinical": {"test": "clinical", "settings": "both sexes, human, in vivo, 550 mg", "procedure": "(§2) Over-encapsulation was utilized to maintain study blind. […] Approximately 50 older healthy female and male adult subjects (1:1 ratio) were randomized into 1 of 2 cohorts:Cohort 1 or Cohort 2, N=˜25 subjects per cohort.\nThere was a single AM fasting dose on Day 4 for both drugs. There was a 6-day wash-out period between drug cross-over.\nSubjects were discharged on Day 4 following successful completion of all assessments and at the Investigator's discretion.\nSubjects were then administered a single dose of their randomized treatment on the morning of Day 14 following an overnight fast of at least 8 hours. Subjects were discharged on Day 14 following successful completion of all assessments and at the Investigator's discretion.\nAn evening snack was served ≥3 hours following evening study medication administration. On Day 4 (Treatment Period 1) and Day 14 (Treatment Period 2), subjects were administered their assigned study drug once in the morning following an overnight fast of at least 8 hours (with approximately 240 mL of non-carbonated water). No additional fluids were allowed during the 1 hour pre- and post-dose.\nBlood samples for PK were collected for Cohorts 1 and 2 at specified times during both periods, as follows: • Days 1 & 11:0 (pre-morning dose) • Days 2 & 12: no sampling. • Days 3 & 13:0 (pre-morning dose), and 1, 2, 3, 4, 6 (pre-mid-day dose), 7, 8, 9, 10, 12 (pre-evening dose), 13, 14, 15, 16, and 17 hours post-morning dose • Days 4 & 14:0 (pre-morning dose), and 1, 2, 3, 4, 6 (post-dose),"}, "CYP2C19": {"molecular_target": "T2, CYP2C19 (Homo sapiens, UniProt P33261)", "T2 construct": "host or cells: heterologous cell systems (not specified)", "T2 sequence (P33261 whole entry)": "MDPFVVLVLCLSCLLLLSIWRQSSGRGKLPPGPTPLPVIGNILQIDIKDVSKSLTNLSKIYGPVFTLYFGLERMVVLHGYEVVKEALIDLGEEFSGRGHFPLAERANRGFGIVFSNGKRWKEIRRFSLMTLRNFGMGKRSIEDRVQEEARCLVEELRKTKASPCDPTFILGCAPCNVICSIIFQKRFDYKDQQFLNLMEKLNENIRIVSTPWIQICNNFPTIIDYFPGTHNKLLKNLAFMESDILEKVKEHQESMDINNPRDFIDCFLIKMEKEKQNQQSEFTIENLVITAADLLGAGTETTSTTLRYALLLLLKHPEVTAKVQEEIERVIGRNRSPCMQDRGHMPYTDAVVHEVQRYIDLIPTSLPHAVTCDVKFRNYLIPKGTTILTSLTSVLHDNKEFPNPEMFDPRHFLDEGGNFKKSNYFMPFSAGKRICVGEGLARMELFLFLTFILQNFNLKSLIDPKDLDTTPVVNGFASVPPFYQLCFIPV", "test": "In vitro stability with recombinant human CYP2C19", "type": "in vitro ADME", "settings": "recombinant human isozyme; read-out: t1/2 following incubation with CYP2C19 (converted)", "procedure": "as §1"}, "older, healthy subjects": {"test_system": "older, healthy subjects", "test": "Crossover study Part 2: safety and tolerability (TEAEs), fed and fasted", "type": "in vivo, human", "source_text": "as §2, with “cohort. Subjects in each cohort were randomized to treatment sequence as follows: • Sequence A: Pirfenidone to LYT-100 • Sequence B: LYT-100 to pirfenidone” for “cohort.”"}, "[6]": {"test_system": "patients with Idiopathic Pulmonary Fibrosis (IPF)", "test": "IPF trial Part A: safety and tolerability (TEAEs, AESI, dose modifications, discontinuations)", "type": "in vivo", "settings": "801 mg TID (N = 63)", "procedure": "The primary objective was to determine the dose(s) to carry into Phase 3. […] Patients were randomized to one of the four treatments in a 1:1:1:1 ratio and stratified based on prior exposure to nintedanib (<6 months) versus nintedanib-naïve patients. Patients who completed the Double-blind Treatment Period (Part A) were offered participation in the Long-term Extension (Part B). […] For patients who participated in Part B, the follow-up was conducted at the end of Part B. A graphical illustration of an embodiment of the trial design is provided as FIG. 24B.\nSafety endpoints included: Adverse events, concomitant medications, clinical laboratory findings (chemistry, hematology, urinalysis), physical examinations, ECGs, and vital signs. These will be summarized descriptively, where appropriate.\nTolerability endpoints included: Frequency of dose modifications (reductions and interruptions), time to first dose modification, (reduction or interruption), duration of adverse events of special interest, time to treatment discontinuation due to an adverse event of special interest and patient reported assessment of IPF symptoms, side-effects, severity, change and satisfaction.\nIn this study, AEs are reported for all patients from the time of consent until the completion of the Follow-up visit. AEs reported prior to the first dose are denoted as pre-treatment. SAEs are reported for all patients (randomized or not) from the time of consent. AEs reported from the time of consent to confinement on Day 0 were recorded as pre-treatment AEs.\nTreatment emergent adverse events (TEAEs) are defined as an AE that occurs following first dose of study medication and were evaluated from the first administration of study drug on Day 1 until the Follow-up visit. […]\nThis study evaluated in particular the tolerability based on prioritized gastrointestinal adverse events (GI AEs). […]"}, "CYP2D6": {"molecular_target": "T3, CYP2D6 (Homo sapiens, UniProt P10635)", "T3 construct": "host or cells: heterologous cell systems (not specified)", "T3 sequence (P10635 whole entry)": "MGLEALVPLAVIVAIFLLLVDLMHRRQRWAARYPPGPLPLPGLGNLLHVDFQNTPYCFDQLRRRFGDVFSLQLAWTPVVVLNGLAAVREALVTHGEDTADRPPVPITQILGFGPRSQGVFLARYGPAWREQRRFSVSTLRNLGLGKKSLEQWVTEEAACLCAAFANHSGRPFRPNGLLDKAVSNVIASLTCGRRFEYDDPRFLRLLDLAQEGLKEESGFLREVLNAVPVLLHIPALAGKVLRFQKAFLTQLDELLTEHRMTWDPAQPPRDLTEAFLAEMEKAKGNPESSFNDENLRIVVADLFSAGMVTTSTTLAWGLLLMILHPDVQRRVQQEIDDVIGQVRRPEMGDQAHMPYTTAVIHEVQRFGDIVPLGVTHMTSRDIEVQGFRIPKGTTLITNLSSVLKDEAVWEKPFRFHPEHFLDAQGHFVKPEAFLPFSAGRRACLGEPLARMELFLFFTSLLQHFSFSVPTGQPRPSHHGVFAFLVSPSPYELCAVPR", "test": "In vitro stability with recombinant human CYP2D6", "type": "in vitro ADME", "settings": "recombinant human isozyme; read-out: t1/2 following incubation with CYP2D6 (converted)", "procedure": "as §1"}, "[7]": {"settings": "pooled phase 3 (Noble 2016), one year, vs placebo"}, "[8]": {"settings": "observational study (Cottin 2018)"}},
  "note": "Values joined by “and” are separate entries in the source; they are usually repeats but may differ in a detail not shown here. Equal values may be shown once. Read-outs that look alike come from different tables or passages of the source.",
  "data": [
    {"compound": "COC(=O)c1ccc2c(c1)NC(=O)/C2=C(\\Nc1ccc(N(C)C(=O)CN2CCN(C)CC2)cc1)c1ccccc1", "note": "[Nintedanib, nintedanib, reference compound]", "values": [
      {"measurement": "hydroxyproline content (μg per mg of wet lung) vs bleomycin/vehicle", "setting": "[1]; Day 8-27", "value": "reduced hydroxyproline content"},
      {"measurement": "lung fibrosis scores (histopathology) vs bleomycin/vehicle", "setting": "[1]; Day 8-27", "value": "did not affect the fibrosis scores"},
      {"measurement": "lung sections with fibrosis Score 1", "setting": "[1]; Day 8-27", "value": 37, "unit": "%"},
      {"measurement": "lung sections with fibrosis Score 2", "setting": "[1]; Day 8-27", "value": 33, "unit": "%"},
      {"measurement": "lung weight ratio (% of body weight) vs bleomycin/vehicle", "setting": "[1]; Day 8-27", "value": "trend for lower lung weight ratios"},
      {"measurement": "mean lung weight vs bleomycin/vehicle", "setting": "[1]; Day 8-27", "value": "reduced lung weight"},
      {"measurement": "median lung fibrosis scores vs bleomycin/vehicle", "setting": "[1]; Day 8-27", "value": "reduced median fibrosis scores"},
      {"measurement": "total left lung hydroxyproline (μg per left lung) vs bleomycin/vehicle", "setting": "[1]; Day 8-27", "value": "lower levels of total hydroxyproline"},
      {"measurement": "body weight gain", "setting": "[1]; oral gavage Day 8-27", "value": "showed modest improvement after Day 8 and the rate of body weight gain remained slower compared with the other groups"}
    ]},
    {"compound": "Cc1ccc(=O)n(-c2ccccc2)c1", "note": "[Pirfenidone, pirfenidone, reference compound]", "values": [
      {"measurement": "Cmax", "setting": "[2]", "value": 11850, "unit": "ng/mL"},
      {"measurement": "patients with IPF progression (decline ≥10% in % FVC or death over 52 weeks)", "setting": "patients with IPF [3]; <90% dose intensity", "value": 21.6, "unit": "%"},
      {"measurement": "patients with IPF progression (decline ≥10% in % FVC or death over 52 weeks)", "setting": "patients with IPF [3]; >90% dose intensity", "value": 11.6, "unit": "%"},
      {"measurement": "rate of permanent dose reductions", "setting": "patients with IPF [3]; pooled phase 3 (Nathan 2018)", "value": 31.5, "unit": "%"},
      {"measurement": "rate of treatment discontinuation", "setting": "patients with IPF [3]; pooled phase 3 (Nathan 2018)", "value": 15.2, "unit": "%"},
      {"measurement": "reduction of risk of death or disease progression", "setting": "patients with IPF [3]; pooled phase 3 (Noble 2016), 1 year, vs placebo", "value": 38, "unit": "%"},
      {"measurement": "FVC change, absolute difference vs placebo", "setting": "patients with IPF [3]; pooled phase 3 (Noble 2016), 1 year", "value": 148, "unit": "mL"},
      {"measurement": "increase in proportion of patients with no decline in FVC % predicted", "setting": "patients with IPF [3]; [7]", "value": 59.3, "unit": "%"},
      {"measurement": "reduction in proportion of patients with ≥10% decline in FVC % predicted or death", "setting": "patients with IPF [3]; [7]", "value": 43.8, "unit": "%"},
      {"measurement": "mean change from baseline to 1 year in FVC", "setting": "patients with IPF [3]; pooled phase 3 (Noble 2016), pirfenidone group", "value": -216, "unit": "mL"},
      {"measurement": "half-life", "setting": "CYP1A2", "value": 3.18, "unit": "h"},
      {"measurement": "discontinuations due to adverse events associated with pirfenidone", "setting": "patients with IPF [4]; [8]", "value": 27.9, "unit": "%"},
      {"measurement": "patients on a lower dose by two years", "setting": "patients with IPF [4]; [8]", "value": 13.8, "unit": "%"},
      {"measurement": "patients who had discontinued treatment by two years", "setting": "patients with IPF [4]; [8]", "value": 64.9, "unit": "%"},
      {"measurement": "patients still on full dose (2,403 mg/day) by two years", "setting": "patients with IPF [4]; observational study of 1,009 IPF patients (Cottin 2018), FIG. 1B", "value": "21.3% and 21%"},
      {"measurement": "Alanine Aminotransferase (U/L) at Worst Post-Baseline, 3-5 ULN", "setting": "[5]", "value": "1 (1.6) n (%)"},
      {"measurement": "Alanine Aminotransferase (U/L) at Worst Post-Baseline, 5-8 ULN", "setting": "[5]", "value": "0 n (%)"},
      {"measurement": "Alanine Aminotransferase (U/L) at Worst Post-Baseline, >8 ULN", "setting": "[5]", "value": "0 n (%)"},
      {"measurement": "Alanine Aminotransferase (U/L) at Worst Post-Baseline, Total (>3 ULN)", "setting": "[5]", "value": "1 (1.6) n (%)"},
      {"measurement": "Alanine Aminotransferase or Aspartate Aminotransferase (U/L) at Worst Post-Baseline, 3-5 ULN", "setting": "[5]", "value": "1 (1.6) n (%)"},
      {"measurement": "Alanine Aminotransferase or Aspartate Aminotransferase (U/L) at Worst Post-Baseline, 5-8 ULN", "setting": "[5]", "value": "0 n (%)"},
      {"measurement": "Alanine Aminotransferase or Aspartate Aminotransferase (U/L) at Worst Post-Baseline, >8 ULN", "setting": "[5]", "value": "0 n (%)"},
      {"measurement": "Alanine Aminotransferase or Aspartate Aminotransferase (U/L) at Worst Post-Baseline, Total (>3 ULN)", "setting": "[5]", "value": "1 (1.6) n (%)"},
      {"measurement": "Aspartate Aminotransferase (U/L) at Worst Post-Baseline, 3-5 ULN", "setting": "[5]", "value": "0 n (%)"},
      {"measurement": "Aspartate Aminotransferase (U/L) at Worst Post-Baseline, 5-8 ULN", "setting": "[5]", "value": "0 n (%)"},
      {"measurement": "Aspartate Aminotransferase (U/L) at Worst Post-Baseline, >8 ULN", "setting": "[5]", "value": "0 n (%)"},
      {"measurement": "Aspartate Aminotransferase (U/L) at Worst Post-Baseline, Total (>3 ULN)", "setting": "[5]", "value": "0 n (%)"},
      {"measurement": "AUC(0-t)", "setting": "clinical; AUC0-24, parent", "value": 44100, "unit": "ng·h/mL"},
      {"measurement": "Cmax", "setting": "clinical; Cmax, parent", "value": 12700, "unit": "ng/mL"},
      {"measurement": "half-life", "setting": "CYP2C19", "value": 2.13, "unit": "h"},
      {"measurement": "deaths or serious AEs", "setting": "older, healthy subjects; Part 2", "value": "No deaths or serious AEs"},
      {"measurement": "TEAEs leading to study discontinuation, subjects", "setting": "older, healthy subjects; in vivo", "value": "one"},
      {"measurement": "Discontinued, Primary Reason: Death", "setting": "[6]", "value": "0 n (%)"},
      {"measurement": "half-life", "setting": "CYP2D6", "value": 2.3, "unit": "h"}
    ]}
  ]
}
